# Patent US11214803B2, “Modulators of YAP1 expression” (Ionis Pharmaceuticals, Inc., priority 2019, dated 2022)
# Strand notation (5' to 3'): a small letter for the sugar, then the base; units joined by * are phosphorothioate-linked, units joined directly phosphodiester-linked; [ ] holds rarer units or linkages, { } end groups; capitals alone tell only the bases. k = constrained ethyl (cEt); [5mC] = 5-methylcytosine; d = 2'-deoxy (DNA)
# How the values were obtained:
# Yap1 mRNA = assay: Dose-dependent inhibition of human Yap1 in A-431 cells (Example 7, 10,000 cells per well, RTS36584); type: cell-based; conditions: free uptake
# How it was run: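 A-431 cells at 10,000 per well received modified oligonucleotides by free uptake at several doses. After about 48 hours, Yap1 mRNA was quantified with primer-probe set RTS36584, normalized to RIBOGREEN total RNA and expressed as % untreated control. IC50 came from linear regression on a log/linear plot.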
# [1] = Tolerability in Balb/c mice, body and organ weights (Example 12); type: in vivo; conditions: male Balb/c mice, 50 mg/kg s.c. twice a week for four weeks (8 treatments), end of study (day 26)
# Protocol: (§1) Groups of male Balb/c mice at 6-7 weeks of age (obtained from Taconic) were injected subcutaneously twice a week for four weeks (for a total of 8 treatments) with 50 mg/kg of modified oligonucleotides. One group of male Balb/c mice was injected with PBS. Mice were euthanized on day 26 post start of treatment (24 hours following the final administration).
# Body weights of Balb/c mice were measured at the end of the study, and the average body weight for each group is presented in the table below. Modified oligonucleotides that caused any changes in organ weights outside the expected range for modified oligonucleotides were excluded from further studies.
# [2] = Tolerability in Balb/c mice, plasma chemistry markers (Example 12); type: in vivo; conditions: 50 mg/kg subcutaneously twice a week for four weeks
# Protocol: Balb/c mice were treated with modified oligonucleotides selected from studies described above and evaluated for changes in the levels of various plasma chemistry markers.
# as §1
# [3] = 15.6 nM, A-431 cells, 10,000 cells per well, approximately 48 hours
# [4] = 62.5 nM, A-431 cells, 10,000 cells per well, approximately 48 hours
# [5] = 4000.00 nM, A-431 cells, 10,000 cells per well, approximately 48 hours
# [6] = A-431 cells, approximately 48 hours, linear regression on log/linear plot
# [7] = Table 56, 15.6 nM, A-431 cells 10,000 cells per well, 48 hours
# [8] = Table 56, 62.5 nM, A-431 cells 10,000 cells per well, 48 hours
# [9] = Table 56, 4000.00 nM, A-431 cells 10,000 cells per well, 48 hours
# [10] = Table 56, A-431 cells 10,000 cells per well
# [11] = Table 61, 15.6 nM, A-431 cells 10,000 cells per well, 48 hours
# [12] = Table 61, 62.5 nM, A-431 cells 10,000 cells per well, 48 hours
# [13] = Table 61, 4000.00 nM, A-431 cells 10,000 cells per well, 48 hours
# [14] = Table 61, A-431 cells 10,000 cells per well
# [15] = Table 59, 15.6 nM, A-431 cells 10,000 cells per well, 48 hours
# [16] = Table 59, 62.5 nM, A-431 cells 10,000 cells per well, 48 hours
# [17] = Table 59, 4000.00 nM, A-431 cells 10,000 cells per well, 48 hours
# [18] = Table 59, A-431 cells 10,000 cells per well
Substance,Kidney weight [1],Liver weight [1],Spleen weight [1],body weight [1],ALT [2],AST [2],BUN [2],TBIL [2],further results
958554 (kA*kA*k[5mC]*d[5mC]*dA*dT*dT*dA*dT*dT*dA*d[5mC]*dT*k[5mC]*k[5mC]*kT; antisense) [compound 958554],0.28 g,1.05 g,0.15 g,22 g,583 U/L,1051 U/L,17 mg/dL,0.28 mg/dL,"Yap1 mRNA, % UTC (Yap1 mRNA; Table 60, 15.6 nM, A-431 cells 10,000 cells per well, 48 hours): 70 % UTC; Yap1 mRNA, % UTC (Yap1 mRNA; Table 60, 62.5 nM, A-431 cells 10,000 cells per well, 48 hours): 34 % UTC; Yap1 mRNA, % UTC (Yap1 mRNA; Table 60, 4000.00 nM, A-431 cells 10,000 cells per well, 48 hours): 4 % UTC; IC50 (Yap1 mRNA; Table 60, A-431 cells 10,000 cells per well): 30 nM"
958725 (kG*kT*k[5mC]*dA*dG*dT*dT*dA*dT*d[5mC]*d[5mC]*dT*dA*kT*k[5mC]*k[5mC]; antisense) [compound 958725],0.21 g,1.23 g,0.04 g,15 g,3758 U/L,3758 U/L,31 mg/dL,0.91 mg/dL,"Yap1 mRNA, % UTC (Yap1 mRNA; [3]): 65 % UTC; Yap1 mRNA, % UTC (Yap1 mRNA; [4]): 36 % UTC; Yap1 mRNA, % UTC (Yap1 mRNA; [5]): 1 % UTC; IC50 (Yap1 mRNA; [6]): 30 nM"
958736 (kG*kT*kG*dA*dT*dA*dT*dG*dG*dA*dT*dT*d[5mC]*kT*kG*kT; antisense) [compound 958736],0.39 g,1.95 g,0.18 g,24 g,2439 U/L,1450 U/L,20 mg/dL,0.31 mg/dL,"Yap1 mRNA, % UTC (Yap1 mRNA; [7]): 83 % UTC; Yap1 mRNA, % UTC (Yap1 mRNA; [8]): 38 % UTC; Yap1 mRNA, % UTC (Yap1 mRNA; [9]): 7 % UTC; IC50 (Yap1 mRNA; [10]): 60 nM"
958509 (kA*kT*kG*dT*dT*dA*dT*dG*dT*dT*dT*dG*dG*kG*kT*kG; antisense) [compound 958509],0.27 g,1.50 g,0.13 g,20 g,1483 U/L,1627 U/L,26 mg/dL,0.31 mg/dL,"Yap1 mRNA, % UTC (Yap1 mRNA; [11]): 66 % UTC; Yap1 mRNA, % UTC (Yap1 mRNA; [12]): 37 % UTC; Yap1 mRNA, % UTC (Yap1 mRNA; [13]): 7 % UTC; IC50 (Yap1 mRNA; [14]): 30 nM"
958375 (antisense kA*kA*kA*dG*d[5mC]*d[5mC]*dT*dT*dA*dG*dA*dG*dT*k[5mC]*kA*kA) [compound 958375],0.39 g,2.00 g,0.12 g,23 g,2736 U/L,3013 U/L,22 mg/dL,0.43 mg/dL,"Yap1 mRNA, % UTC (Yap1 mRNA; [7]): 74 % UTC; Yap1 mRNA, % UTC (Yap1 mRNA; [8]): 35 % UTC; Yap1 mRNA, % UTC (Yap1 mRNA; [9]): 5 % UTC; IC50 (Yap1 mRNA; [10]): 40 nM"
958553 (k[5mC]*k[5mC]*kA*dT*dT*dA*dT*dT*dA*d[5mC]*dT*d[5mC]*d[5mC]*kT*kG*kT; antisense) [compound 958553],0.29 g,1.01 g,0.11 g,21 g,174 U/L,227 U/L,29 mg/dL,0.20 mg/dL,"Yap1 mRNA, % UTC (Yap1 mRNA; [15]): 68 % UTC; Yap1 mRNA, % UTC (Yap1 mRNA; [16]): 23 % UTC; Yap1 mRNA, % UTC (Yap1 mRNA; [17]): 5 % UTC; IC50 (Yap1 mRNA; [18]): 30 nM"
958540 (kA*kT*kT*d[5mC]*dT*dA*dT*d[5mC]*d[5mC]*dA*dG*dG*dG*kT*k[5mC]*kA; antisense) [compound 958540],0.33 g,1.53 g,0.09 g,19 g,4127 U/L,3940 U/L,25 mg/dL,0.44 mg/dL,"Yap1 mRNA, % UTC (Yap1 mRNA; [3]): 62 % UTC; Yap1 mRNA, % UTC (Yap1 mRNA; [4]): 28 % UTC; Yap1 mRNA, % UTC (Yap1 mRNA; [5]): 8 % UTC; IC50 (Yap1 mRNA; [6]): 20 nM"
958454 (antisense kG*kG*kA*dA*dT*dG*dA*dG*d[5mC]*dT*d[5mC]*dG*dA*kA*k[5mC]*kA) [compound 958454],0.25 g,0.68 g,0.03 g,14 g,1183 U/L,2162 U/L,45 mg/dL,6.53 mg/dL,"Yap1 mRNA, % UTC (Yap1 mRNA; [11]): 72 % UTC; Yap1 mRNA, % UTC (Yap1 mRNA; [12]): 40 % UTC; Yap1 mRNA, % UTC (Yap1 mRNA; [13]): 4 % UTC; IC50 (Yap1 mRNA; [14]): 40 nM"
958721 (kG*kT*kA*dG*dT*dA*dT*dA*dA*dT*dG*dA*dG*kT*kT*kA; antisense) [compound 958721],0.33 g,1.45 g,0.12 g,24 g,57 U/L,114 U/L,28 mg/dL,0.17 mg/dL,"Yap1 mRNA, % UTC (Yap1 mRNA; [7]): 72 % UTC; Yap1 mRNA, % UTC (Yap1 mRNA; [8]): 32 % UTC; Yap1 mRNA, % UTC (Yap1 mRNA; [9]): 3 % UTC; IC50 (Yap1 mRNA; [10]): 30 nM"
958603 (kT*kG*kG*dT*dA*dT*dG*dA*dA*dT*dT*d[5mC]*dT*kG*kA*kA; antisense) [compound 958603],0.36 g,1.80 g,0.20 g,21 g,1103 U/L,927 U/L,27 mg/dL,0.35 mg/dL,"Yap1 mRNA, % UTC (Yap1 mRNA; [15]): 70 % UTC; Yap1 mRNA, % UTC (Yap1 mRNA; [16]): 27 % UTC; Yap1 mRNA, % UTC (Yap1 mRNA; [17]): 4 % UTC; IC50 (Yap1 mRNA; [18]): 30 nM"
958498 (kG*kA*kG*dT*dA*dT*dG*dT*dG*dG*d[5mC]*dA*dA*kT*kA*kA; antisense) [compound 958498],0.45 g,1.51 g,0.19 g,20 g,1441 U/L,3197 U/L,12 mg/dL,0.74 mg/dL,"Yap1 mRNA, % UTC (Yap1 mRNA; [15]): 70 % UTC; Yap1 mRNA, % UTC (Yap1 mRNA; [16]): 21 % UTC; Yap1 mRNA, % UTC (Yap1 mRNA; [17]): 2 % UTC; IC50 (Yap1 mRNA; [18]): 20 nM"
